According to patent US6737383B1, “Herbicidal oxadiazolidines” (priority 1999, dated 2004):

Tests used:
smallflower flatsedge = test: Test B flood test smallflower flatsedge; assay type: in vivo, Cyperus difformis
Procedure, shortened: (§1)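 Flood test on plants grown to the 2-leaf stage; treated plants kept in greenhouse twelve to sixteen days, then visually rated against controls on a 0 (no effect) to 10 (complete control) scale.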

sugar beet = test: Test B pre/postemergence sugar beet; assay type: in vivo, Beta vulgaris
Procedure, shortened: (§2)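 Test chemicals in a non-phytotoxic solvent mixture with surfactant were sprayed preemergence onto planted seeds and postemergence onto plants 2 to 18 cm tall (1- to 4-leaf stage). After twelve to sixteen days in a greenhouse, injury was visually rated against untreated controls from 0 (no effect) to 10 (complete control).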

rice = test: Test B flood test rice; assay type: in vivo, Oryza sativa
Procedure, shortened: as §1

velvetleaf = test: Test B pre/postemergence velvetleaf; assay type: in vivo, Abutilon theophrasti
Procedure, shortened: as §2

morningglory = test: Test B pre/postemergence morningglory; assay type: in vivo, Ipomoea hederacea
Procedure, shortened: as §2

giant foxtail = test: Test B pre/postemergence giant foxtail; assay type: in vivo, Setaria faberii
Procedure, shortened: as §2

pigweed = test: Test B pre/postemergence pigweed; assay type: in vivo, Amaranthus retroflexus
Procedure, shortened: as §2

wild oat = test: Test B pre/postemergence wild oat; assay type: in vivo, Avena fatua
Procedure, shortened: as §2

soybean = test: Test B pre/postemergence soybean; assay type: in vivo, Glycine max
Procedure, shortened: as §2

surinam grass = test: Test B pre/postemergence surinam grass; assay type: in vivo, Brachiaria decumbens
Procedure, shortened: as §2

wheat = test: Test B pre/postemergence wheat; assay type: in vivo, Triticum aestivum
Procedure, shortened: as §2

blackgrass = test: Test B pre/postemergence blackgrass; assay type: in vivo, Alopecurus myosuroides
Procedure, shortened: as §2

cocklebur = test: Test B pre/postemergence cocklebur; assay type: in vivo, Xanthium strumarium
Procedure, shortened: as §2

rape = test: Test B pre/postemergence rape; assay type: in vivo, Brassica napus
Procedure, shortened: as §2

bedstraw = test: Test B pre/postemergence bedstraw; assay type: in vivo, Galium aparine
Procedure, shortened: as §2

corn = test: Test B pre/postemergence corn; assay type: in vivo, Zea mays
Procedure, shortened: as §2

[1] = Postemergence, Rate 62 g/ha, scale 0 to 10, 0 is no effect, 10 is complete control
[2] = Rate 125 g/ha, Postemergence section (flood test species), scale 0 to 10, 0 no effect, 10 complete control
[3] = Rate 500 g/ha, listed under Postemergence (flood test species), scale 0 to 10, 0 no effect, 10 complete control
[4] = flood test, listed under Postemergence, Rate 250 g/ha, scale 0 to 10, 0 no effect, 10 complete control
[5] = Postemergence, Rate 250 g/ha, scale 0 to 10, 0 no effect, 10 complete control
[6] = Preemergence, Rate 62 g/ha, scale 0 to 10 (0 no effect, 10 complete control)
[7] = Preemergence, Rate 125 g/ha, scale 0 to 10 (0 no effect, 10 complete control)
[8] = Preemergence, Rate 250 g/ha, scale of 0 to 10 where 0 is no effect and 10 is complete control
[9] = Preemergence, Rate 500 g/ha, scale 0 (no effect) to 10 (complete control)
[10] = Rate 125 g/ha, Postemergence, scale 0 to 10, 0 no effect, 10 complete control
[11] = Rate 500 g/ha, Postemergence, scale 0 to 10, 0 no effect, 10 complete control

## CCN(C(=O)n1oc(=O)n(-c2c(C)cc(C)cc2C)c1=O)C1CCCCC1 [Compound 63]
Smallflower flatsedge; [1]
  S. Flatsedge plant response rating: 0
Smallflower flatsedge; [2]
  S. Flatsedge plant response rating: 0
Smallflower flatsedge; [3]
  S. Flatsedge plant response rating: 0
Smallflower flatsedge; [4]
  S. Flatsedge plant response rating: 0
Sugar beet; [1]
  Sugarbeets plant response rating: 0
Sugar beet; [5]
  Sugarbeets plant response rating: 2
Sugar beet; [6]
  Sugarbeets plant response rating: 0
Sugar beet; [7]
  Plant response rating, Sugarbeets: 0
Sugar beet; [8]
  Plant response rating, Sugarbeets: 0
Sugar beet; [9]
  Sugarbeets plant response rating: 0
Sugar beet; [10]
  Sugarbeets plant response rating: 0
Sugar beet; [11]
  Sugarbeets plant response rating: 3
rice; [1]
  Rice plant response rating: 0
rice; [2]
  Rice plant response rating: 0
rice; [3]
  Rice plant response rating: 0
rice; [4]
  Rice plant response rating: 0
velvetleaf; [1]
  Velvetleaf plant response rating: 3
velvetleaf; [5]
  Velvetleaf plant response rating: 5
velvetleaf; [6]
  Velvetleaf plant response rating: 0
velvetleaf; [7]
  Plant response rating, Velvetleaf: 0
velvetleaf; [8]
  Plant response rating, Velvetleaf: 2
velvetleaf; [9]
  Velvetleaf plant response rating: 3
velvetleaf; [10]
  Velvetleaf plant response rating: 3
velvetleaf; [11]
  Velvetleaf plant response rating: 5
morningglory; [1]
  Morningglory plant response rating: 0
morningglory; [5]
  Morningglory plant response rating: 4
morningglory; [6]
  Morningglory plant response rating: 0
morningglory; [7]
  Plant response rating, Morningglory: 0
morningglory; [8]
  Plant response rating, Morningglory: 0
morningglory; [9]
  Morningglory plant response rating: 0
morningglory; [10]
  Morningglory plant response rating: 2
morningglory; [11]
  Morningglory plant response rating: 4
Giant foxtail; [1]
  Giant foxtail plant response rating: 0
Giant foxtail; [5]
  Giant foxtail plant response rating: 0
Giant foxtail; [6]
  Giant foxtail plant response rating: 0
Giant foxtail; [7]
  Plant response rating, Giant foxtail: 0
Giant foxtail; [8]
  Plant response rating, Giant foxtail: 2
Giant foxtail; [9]
  Giant foxtail plant response rating: 3
Giant foxtail; [10]
  Giant foxtail plant response rating: 0
Giant foxtail; [11]
  Giant foxtail plant response rating: 2
pigweed; [1]
  Redroot pigweed plant response rating: 0
pigweed; [5]
  Redroot pigweed plant response rating: 0
pigweed; [6]
  Redroot pigweed plant response rating: 0
pigweed; [7]
  Plant response rating, Redroot pigweed: 0
pigweed; [8]
  Plant response rating, Redroot pigweed: 0
pigweed; [9]
  Redroot pigweed plant response rating: 0
pigweed; [10]
  Redroot pigweed plant response rating: 0
pigweed; [11]
  Redroot pigweed plant response rating: 2
Wild oat; [1]
  Wild oats plant response rating: 0
Wild oat; [5]
  Wild oats plant response rating: 0
Wild oat; [6]
  Wild oats plant response rating: 0
Wild oat; [7]
  Plant response rating, Wild oats: 0
Wild oat; [8]
  Plant response rating, Wild oats: 0
Wild oat; [9]
  Wild oats plant response rating: 0
Wild oat; [10]
  Wild oats plant response rating: 0
Wild oat; [11]
  Wild oats plant response rating: 2
soybean; [1]
  Soybean plant response rating: 2
soybean; [5]
  Soybean plant response rating: 2
soybean; [6]
  Soybean plant response rating: 0
soybean; [7]
  Plant response rating, Soybean: 0
soybean; [8]
  Plant response rating, Soybean: 0
soybean; [9]
  Soybean plant response rating: 0
soybean; [10]
  Soybean plant response rating: 2
soybean; [11]
  Soybean plant response rating: 3
Surinam grass; [1]
  B. signalgrass plant response rating: 0
Surinam grass; [5]
  B. signalgrass plant response rating: 0
Surinam grass; [6]
  B. signalgrass plant response rating: 0
Surinam grass; [7]
  Plant response rating, B. signalgrass: 0
Surinam grass; [8]
  Plant response rating, B. signalgrass: 0
Surinam grass; [9]
  B. signalgrass plant response rating: 0
Surinam grass; [10]
  B. signalgrass plant response rating: 0
Surinam grass; Rate 500 g/ha, Postemergence, scale of 0 to 10 where 0 is no effect and 10 is complete control
  B. signalgrass plant response rating: 0
wheat; [1]
  Wheat plant response rating: 0
wheat; [5]
  Wheat plant response rating: 0
wheat; [6]
  Wheat plant response rating: 0
wheat; [7]
  Plant response rating, Wheat: 0
wheat; [8]
  Plant response rating, Wheat: 0
wheat; [9]
  Wheat plant response rating: 0
wheat; [10]
  Wheat plant response rating: 0
wheat; [11]
  Wheat plant response rating: 2
blackgrass; [1]
  Blackgrass plant response rating: 0
blackgrass; [5]
  Blackgrass plant response rating: 0
blackgrass; [6]
  Blackgrass plant response rating: 0
blackgrass; [7]
  Plant response rating, Blackgrass: 0
blackgrass; [8]
  Plant response rating, Blackgrass: 0
blackgrass; [9]
  Blackgrass plant response rating: 0
blackgrass; [10]
  Blackgrass plant response rating: 0
blackgrass; [11]
  Blackgrass plant response rating: 0
cocklebur; [1]
  Cocklebur plant response rating: 0
cocklebur; [5]
  Cocklebur plant response rating: 0
cocklebur; [6]
  Cocklebur plant response rating: 0
cocklebur; [7]
  Plant response rating, Cocklebur: 0
cocklebur; [8]
  Plant response rating, Cocklebur: 0
cocklebur; [9]
  Cocklebur plant response rating: 0
cocklebur; [10]
  Cocklebur plant response rating: 0
cocklebur; [11]
  Cocklebur plant response rating: 0
rape; [1]
  Rape plant response rating: 0
rape; [5]
  Rape plant response rating: 0
rape; [6]
  Rape plant response rating: 0
rape; [7]
  Plant response rating, Rape: 0
rape; [8]
  Plant response rating, Rape: 0
rape; [10]
  Rape plant response rating: 0
rape; [11]
  Rape plant response rating: 0
bedstraw; [1]
  Bedstraw plant response rating: 0
bedstraw; [5]
  Bedstraw plant response rating: 3
bedstraw; [6]
  Bedstraw plant response rating: 0
bedstraw; [7]
  Plant response rating, Bedstraw: 0
bedstraw; [8]
  Plant response rating, Bedstraw: 0
bedstraw; [9]
  Bedstraw plant response rating: 3
bedstraw; [10]
  Bedstraw plant response rating: 0
corn; [1]
  Corn plant response rating: 0
corn; [5]
  Corn plant response rating: 2
corn; [6]
  Corn plant response rating: 0
corn; [7]
  Plant response rating, Corn: 0
corn; [8]
  Plant response rating, Corn: 0
corn; [9]
  Corn plant response rating: 0
corn; [10]
  Corn plant response rating: 0
corn; [11]
  Corn plant response rating: 2
